The numbers were not newly measured in patent publication US20140023701A1, “Method and Composition for Ameliorating the Effects tor a Subject Exposed to Radiation or Other Sources of Oxidative Stress” (priority 2011, published 2014), which cites them from elsewhere.

Read-outs that look alike come from different tables or passages of the source. A value given as a limit tells only on which side of the number the result lay.

The test system of series [1] is Human.
Series [2] has as its system Human. The source holds these as a separate data set.
[3] abbreviates: no observed adverse event level, most sensitive subgroup.
[4] abbreviates: tolerable upper intake level, daily intake.

Consider `O=C(O)CCCC[C@@H]1SC[C@@H]2NC(=O)N[C@@H]21` [Biotin], for which the “Human NOAEL” value in the series on Human [1] (setting [3]) is 2.5 mg. For the compound `[Ca]` [Calcium], the “Human NOAEL” value with Human [1] (setting [3]) is 1500 mg. In addition, in the series on Human [2], the “Human UL (19-70 yo group)” value is reported as 2500 mg.

As for `Nc1nc2ncc(CNc3ccc(C(=O)N[C@@H](CCC(=O)O)C(=O)O)cc3)nc2c(=O)[nH]1` [Folate, folic acid], the “Human NOAEL” value with Human [1] (setting [3]) is 1 mg.

Consider `[Mg]` [Magnesium], for which the “Human NOAEL” value in the series with Human [1] (setting [3]) is reported as 700 mg. The “Human UL (19-70 yo group)” value in the series on Human [2] (setting [4]) was 350 mg.

Regarding `[Mn+2]` [Manganese], in the series with Human [1] (setting [3]), the “Human NOAEL” value is 10 mg. Besides, the “Human UL (19-70 yo group)” value in the series with Human [2] is 11 mg. With `[Mo]` [Molybdenum], in the series on Human [1] (setting [3]), the “Human NOAEL” value is 0.35 mg. Also, the “Human UL (19-70 yo group)” value with Human [2] (setting [4]) is 2 mg.

`O=C(O)c1cccnc1` [Niacin, inositol hexanicotinate]: the “Human UL (19-70 yo group)” value in the series with Human [2] (setting [4]) is on record as 35 mg. In the case of `CC(C)(CO)[C@@H](O)C(=O)NCCC(=O)O` [Pantothenic acid, d-calcium pantothenate], the “Human NOAEL” value with Human [1] (setting [3]) is recorded as 1000 mg. `Cc1ncc(CO)c(CO)c1O.Cl` [Vitamin B6, pyridoxine hydrochloride]: the “Human NOAEL” value in the series on Human [1] (human) is on record as 200 mg. Besides, the “Human UL (19-70 yo group)” value in the series with Human [2] is recorded as 100 mg. `O=C1O[C@H]([C@@H](O)CO)C(O)=C1O` [Vitamin C, ascorbic acid]: in the series with Human [1] (setting [3]), the “Human NOAEL” value is reported as >1000 mg. In the case of `C=C1CC[C@H](O)C/C1=C/C=C1\CCC[C@]2(C)[C@@H]([C@H](C)CCCC(C)C)CC[C@@H]12` [Vitamin D, cholecalciferol], the “Human NOAEL” value with Human [1] (setting [3]) is 800 IU.

For the compound `CC1=C(C/C=C(\C)CCC[C@H](C)CCC[C@H](C)CCCC(C)C)C(=O)c2ccccc2C1=O` [Vitamin K, phytonadione], the “Human NOAEL” value in the series on Human [1] (human) is 0.03 mg.

Consider Copper, for which the “Human NOAEL” value with Human [1] (setting [3]) is reported as 9 mg. For the same compound, the “Human UL (19-70 yo group)” value in the series with Human [2] is on record as 10 mg.

Take Vitamin A: the “Human NOAEL” value with Human [1] (human) is reported as 10,000 IU. Further, the “Human UL (19-70 yo group)” value with Human [2] is on record as 10,000 U. For the compound Vitamin E, the “Human NOAEL” value with Human [1] (human) is 1200 IU. Besides, the “Human UL (19-70 yo group)” value in the series with Human [2] (setting [4]) was 1490 IU. On to Zinc, for which the “Human NOAEL” value in the series with Human [1] (setting [3]) is 30 mg. The “Human UL (19-70 yo group)” value in the series on Human [2] was 40 mg. Consider chromium polynicotinate, for which the “Human NOAEL” value in the series with Human [1] (setting [3]) was 1 mg. Turning to cyanocobalamin [Vitamin B12], the “Human NOAEL” value in the series on Human [1] (setting [3]) was 3 mg.
